Laboratory results reported in patent publication US20230248744A1, “25-HYDROXYVITAMIN D2 AND/OR D3 FOR USE IN OBESITY” (CARBOGEN AMCIS B.V., priority 2020, published 2023).
Read-outs that look alike come from different tables or passages of the source. One block for each compound: values may come before it.

Assays:
[1] = single or multiple oral doses of 1250 μg vitamin D, or a dose of 900 μg 25(OH)D3; cited from earlier work
[2] = Double-blind randomized crossover pharmacokinetic study, single oral 900 μg vitamin D3 or 25(OH)D3; type: in vivo, human; conditions: for Cmax / Tmax / concentration at 14 days / half-life / AUC: both sexes, human, serum, po, single oral 900 μg, mean ± SEM; for Cmax / Tmax / half-life / AUC: 900 ug; for concentration at 14 days: 900 μg, read-out: Ctrough (trough level at day 14); for half-life: read-out: T1/2 (elimination half-life) (converted)
Description: The conclusions as presented herein are based on the following experiments: In a double-blinded cross-over study single high dosages (900 μg total in two soft gel capsules containing 450 μg) of either vitamin D3 or 25(OH)D3 were administered to vitamin D-deficient volunteers including healthy controls as well as subjects with a history of malabsorption. At the outset, the BMI was determined. Blood samples were then taken at baseline and at 2, 4, 6, 8, and 12 hours as well as 1, 2, 3, 7, and 14 days after administration (FIG. 2). All the samples were analyzed for their contents in vitamin D3 per se as well as 25(OH)D3. […] In addition, peak levels were more rapidly reached with 25(OH)D3 than with vitamin D3 (see FIG. 5). The immediate increase in serum 25(OH)D3 compared to the delayed increase observed with vitamin D3 supports the concept that 25(OH)D3 is being rapidly absorbed from the small intestine into the portal circulation, whereas vitamin D3 first needs to be incorporated into the chylomicrons which are absorbed into the lymphatic system.
The pharmacokinetic parameters of orally administered 25(OH)D3 and vitamin D3 (both provided for formulation in form of visually identical soft-gel pills) were studied based on the corresponding serum concentration-time curves in healthy adults and adults with a history of intestinal malabsorption (see FIG. 2). Cinical safety has been evaluated by monitoring serum calcium, phosphorus, parathyroid hormone (PTH) and 25(OH)D levels at the beginning and end of the study. Furthermore, the distribution of supplemented 25(OH)D3 (or 25(OH)D2) into adipose tissue and the role it is playing there was also studied.
Serum levels of calcium, phosphorus, albumin, creatinine and intact parathyroid hormone (iPTH) were determined at baseline and at the end of each 14-day pharmacokinetic study (see Table 4). The pharmacokinetic parameters have been determined by evaluating the serum concentration-time curves in patients with malabsorption syndrome and healthy controls (Tables 5 and 6).
The primary outcomes of the study are the serum pharmacokinetic parameters of 25(OH)D3 and vitamin D3 after a single oral administration of 900 μg of each in a double-blind randomized crossover study.
Adult patients (18 years and older) with a history of intestinal malabsorption (n=10) and healthy adult volunteers (n=10); (of both sexes and all ethnicities) has been recruited in this randomized double-blinded crossover study. The BMI has been determined and recorded at baseline. All subjects have been prescreened for 25(OH)D levels to include subjects with 25(OH)D<30 ng/mL. The subjects have been randomized to receive two oral doses of 450 μg taken simultaneously (total 900 μg) of either vitamin D3 or 25(OH)D3. Blood samples were taken at baseline and at 2, 4, 6, 8, 12 hours and days 1, 2, 3, 7 and 14. There was a two weeks washout period before the subject received in a double blinded manner, two oral doses of 450 μg taken simultaneously (total 900 μg) of either 25(OH)D3 or vitamin D3 (depending on which one they took in the randomization) any time after the 2 week washout. Blood samples were taken at baseline and at 2, 4, 6, 8, 12 hours and days 1, 2, 3, 7 and 14 days. Serum levels of calcium, phosphorus, albumin, creatinine, and intact parathyroid hormone (iPTH) were obtained at baseline and at day 14 for each arm (or within a reasonable time if the study participant was unable to come on the exact day).
The individuals participating in the study had, after signing a consent form, been randomized by a computer randomization chart in a blinded manner to receive two oral doses of 450 μg taken simultaneously (total 900 μg) of either vitamin D3 or 25(OH)D3. Blood samples have been taken at baseline and at 2, 4, 6, 8, 12 hours and days 1, 2, 3, 7 and 14. […]

[3] = vitamin D deficient postmenopausal women; single p.o. bolus of 140 μg of each substance; cited from earlier work
[4] = cited from earlier work
[5] = cited from earlier work; remark: listed apart in the source
[6] = cited from earlier work; remark: listed apart in the source
[7] = healthy participants with higher BMI (N = 5)
[8] = healthy participants with lower BMI (N = 5)
[9] = patients with fat malabsorption (N = 6)

- time at which the peak of the serum concentration is reached ([2]; FIG. 5, oral 900 μg): ~8 h
- bioavailability in subjects with a history of vitamin D/fat malabsorption ([2]; after administration of the respective product, FIGS. 3a and b): almost normal
- Cmax ([2]; healthy participants (N = 10)): 23.1 ± 4.6 ng/mL
- Tmax ([2]; healthy participants (N = 10)): 11.2 ± 4.1 h
- concentration at 14 days ([2]; healthy participants (N = 10)): 6.1 ± 1.3 ng/mL
- half-life ([2]; healthy participants (N = 10)): 60.6 ± 7.9 h
- AUC ([2]; healthy participants (N = 10), serum level of the administered substance): 3130 ± 545 ng·h/mL
- AUC [2, 7]: 2620 ± 855 ng·h/mL
- Cmax [2, 7]: 21.4 ± 8 ng/mL
- Tmax [2, 7]: 15.2 ± 8.2 h
- concentration at 14 days [2, 7]: 4.6 ± 1.4 ng/mL
- half-life [2, 7]: 55 ± 10.7 h
- AUC [2, 8]: 3630 ± 690 ng·h/mL
- Cmax [2, 8]: 24.8 ± 5.5 ng/mL
- Tmax [2, 8]: 7.2 ± 0.5 h
- concentration at 14 days [2, 8]: 7.6 ± 2.1 ng/mL
- half-life [2, 8]: 66.2 ± 12.3 h
- Cmax [2, 9]: 23.2 ± 6.8 ng/mL
- Tmax [2, 9]: 5.3 ± 0.7 h
- concentration at 14 days [2, 9]: 6.7 ± 1.5 ng/mL
- half-life [2, 9]: 65.7 ± 29.9 h
- AUC ([2]; patients with fat malabsorption (N = 6), serum level of the administered substance): 2670 ± 735 ng·h/mL
Compound: C=C1CC[C@H](O)C/C1=C/C=C1\CCC[C@]2(C)[C@@H]([C@H](C)CCCC(C)(C)O)CC[C@@H]12 [25-hydroxyvitamin D3]
- reports of toxicity [1]: toxicity has never been reported
- Cmax increase over baseline of 25(OH)D3 [3]: 24.7 ng/mL
- power of oral calcifediol relative to oral cholecalciferol (vitamin D3) [4]: three- to five-time more powerful
- increase of 25(OH)D by 24 hours ([5]; after bolus intravenous dose): 40 ng/mL
- toxicity ([5]; bolus intravenous 448 μg or 900 μg slow release): No toxicity was observed
- increase of peak concentration of 25(OH)D above baseline ([5]; bolus intravenous dose of 448 μg): approximately 110 ng/mL
- toxicity in pharmacokinetic study ([5]; oral single dose of 900 μg): did not show any untoward toxicity

Compound: C=C1CC[C@H](O)C/C1=C/C=C1\CCC[C@]2(C)[C@@H]([C@H](C)/C=C/[C@H](C)C(C)C)CC[C@@H]12 [vitamin D2, ergocalciferol]
- serum vitamin D concentration reached ([6]; five of the seven patients with intestinal fat malabsorption, oral 50,000 IU): ≤ 10 ng/mL

Compound: vitamin D
- peak serum vitamin D concentration ([6]; single oral dose of 1.25 mg (50'000 IU), baseline less than 5 ng/mL): over 50 ng/mL
- time of fall of serum vitamin D to baseline levels ([6]; single oral dose of 1.25 mg): ≤ 3 days
- time of peak serum vitamin D concentration ([6]; single oral dose of 1.25 mg): ≤ 12 h
